Measured values reported in patent publication US20240010606A1, “FUMARATE DERIVATIVES AND THEIR MEDICAL USE” (Sitryx Therapeutics Limited, priority 2020, published 2024).
Structures can show the parent of a compound that is named as a salt.

Experiments:
IL-1β = assay: THP-1 AlphaLISA IL-1β cytokine assay; format: cell-based; details: Homo sapiens; differentiated THP-1 cells, LPS then Nigericin; Table 1
Description: Biological Example 1—THP-1 AlphaLISA IL-1β and IL-6 Cytokine Assay Measuring Inhibitory Effects on IL-1, and IL-6 Cytokine Output from THP-1s The cytokine inhibition profiles of compounds of formula (I) were determined in a differentiated THP-1 cell assay. All assays were performed in RPMI-1640 growth medium (Gibco), supplemented with 10% fetal bovine serum (FBS; Gibco), 1% penicillin-streptomycin and 1% sodium pyruvate unless specified otherwise. The IL-1β and IL-6 cytokine inhibition assays were each run in a background of differentiated THP-1 cells as described below. All reagents described were from Sigma-Aldrich unless specified otherwise. Compounds were prepared as 10 mM DMSO stocks. THP-1 cells were expanded as a suspension up to 80% confluence in appropriate growth medium. Cells were harvested, suspended, and treated with an appropriate concentration of phorbol 12-myristate 13-acetate (PMA) over a 72 hr period (37° C./5% CO2). Following 72 hrs of THP-1 cell incubation, cellular medium was removed and replaced with fresh growth media containing 1% of FBS. Working concentrations of compounds were prepared separately in 10% FBS treated growth medium and pre-incubated with the cells for 30 minutes (37° C./5% CO2). Following the 30 minute compound pre-incubation, THP-1s were treated with an appropriate concentration of LPS and the THP-1s were subsequently incubated for a 24 hr period (37° C./5% CO2). An appropriate final concentration of Nigericin was then dispensed into the THP-1 plates and incubated for 1 hour (37° C./5% CO2) before THP-1 supernatants were harvested and collected in separate polypropylene 96-well holding plates. Reagents from each of the IL-1β and IL-6 commercial kits (Perkin Elmer) were prepared and run according to the manufacturer's instructions. Subsequently, fluorescence signal detection in a microplate reader was measured (EnVision® Multilabel Reader, Perkin Elmer). Percentage inhibition was calculated per cytokine by normalizing the sample data to the high and low controls used within each plate (+/−LPS respectively). Percentage inhibition was then plotted against compound concentration and the 50% inhibitory concentration (IC50) was determined from the resultant concentration-response curve.

hepatocytes [1] = assay: Hepatocyte stability assay, human; format: in vitro ADME; details: 10 μM compound
From the text: (§1) Biological Example 3—Hepatocyte Stability Assay
(§2) Defrosted cryo-preserved hepatocytes (viability >70%) are used to determine the metabolic stability of a compound via calculation of intrinsic clearance (CIint; a measure of the removal of a compound from the liver in the absence of blood flow and cell binding). Clearance data are particularly important for […] as they can be used in combination with in vivo data to predict the half-life and oral bioavailability of a drug.
(§3) The metabolic stability in hepatocytes assay involves a time-dependent reaction using both positive and negative controls. The cells must be pre-incubated at 37° C. then spiked with test compound (and positive control); samples taken at pre-determined time intervals are analysed to monitor the change in concentration of the initial drug compound over 60 minutes. A buffer incubation reaction (with no hepatocytes present) acts as a negative control and two cocktail solutions, containing compounds with known high and low clearance values (verapamil/7-hydroxycoumarin and propranolol/diltiazem), act as positive controls. • 1. The assay is run with a cell concentration of 0.5×10^6 cells/mL in Leibovitz buffer. • 2. All compounds and controls are run in duplicate. • 3. Compound concentration is 10 μM. • 4. All compounds and controls are incubated with both cells and buffer to show turnover is due to hepatic metabolism. • 5. All wells on the incubation plate will have 326.7 μL of either cells or buffer added. • 6. Prior to assay, cell and buffer-only incubation plates are preincubated for 10 mins at 37° C. • 7. The assay is initiated by adding compounds, 3.3 μL of 1 mM in 10% DMSO-90% Buffer; final DMSO concentration is 0.1%. • 8. Samples are taken at regular timepoints (0, 5, 10, 20, 40, 60 min) until 60 mins. • 9. Sample volume is 40 μL and it is added to 160 μL of crash solvent (acetonitrile with internal standard) and stored on ice. • 10. At the end of the assay, the crash plates are centrifuged at 3500 rpm for 20 mins at 4° C. • 11. 80 μL of clear supernatant is removed and mixed with 80 μL of deionised water before being analysed by LC-MS/MS.
(§4) Raw LC-MS/MS data are exported to, and analysed in, Microsoft Excel for determination of intrinsic clearance. The percentage remaining of a compound is monitored using the peak area of the initial concentration as 100%. Intrinsic clearance and half-life values are calculated using a graph of the natural log of percentage remaining versus the time of reaction in minutes. Half-life (min) and intrinsic clearance (CIint in μL min^−1 10^−6 cells) values are calculated using the gradient of the graph (the elimination rate constant, k) and Equations 1 and 2.

[2] = Hepatocyte stability assay, human; format: in vitro ADME; details: cryopreserved hepatocytes, 10 μM compound, Table 5, read-out: T½
From the text: as §1, §2, §3, §4

hepatocytes [3] = assay: Hepatocyte stability assay, mouse; format: in vitro ADME; details: 10 μM compound
From the text: as §1, §2, §3, §4

[4] = Hepatocyte stability assay, mouse; format: in vitro ADME; details: mouse, cryopreserved hepatocytes, 10 μM compound
From the text: as §1, §2, §3, §4

NRF2 = NRF2 activation assay (DiscoverX PathHunter NRF2 translocation kit, U2OS cells); format: cell-based; details: Table 3; for NRF2 activation Emax: normalised to dimethyl fumarate high control
Description: Biological Example 2—NRF2 Activation Assay Measuring Compound Activation Effects on the Anti-Inflammatory Transcription Factor NRF2 in DiscoverX PathHunter NRF2 Translocation Kit Potency and efficacy of compounds of formula (I) against the target of interest to activate NRF2 (nuclear factor erythroid 2-related factor 2) were determined using the PathHunter NRF2 translocation kit (DiscoverX). The NRF2 translocation assay was run using an engineered recombinant cell line, utilising enzyme fragment complementation to determine activation of the Keap1-NRF2 protein complex and subsequent translocation of NRF2 into the nucleus. Enzyme activity was quantified using a chemiluminescent substrate consumed following the formation of a functional enzyme upon PK-tagged NRF2 translocation into the nucleus. Additionally, a defined concentration of dimethyl fumarate was used as the ‘High’ control to normalise test compound activation responses to. U2OS PathHunter eXpress cells were thawed from frozen prior to plating. Following plating, U2OS cells were incubated for 24 hrs (37° C./5% CO2) in commercial kit provided cell medium. Following 24 hrs of U2OS incubation, cells were directly treated with an appropriate final concentration of compound. Following compound treatment, the U2OS plates were incubated for a further 6 hours (37° C./5% CO2) before detection reagent from the PathHunter NRF2 commercial kit was prepared and added to test plates according to the manufacturer's instructions. Subsequently, the luminescence signal detection in a microplate reader was measured (PHERAstar®, BMG Labtech). Percentage activation was calculated by normalising the sample data to the high and low controls used within each plate (+/−DMF). Percentage activation/response was then plotted against compound concentration and the 50% activation concentration (EC50) was determined from the plotted concentration-response curve.

COC(=O)/C=C/C(=O)OCCN1C(=O)CCC1=O [2-(2,5-Dioxopyrrolidin-1-yl)ethyl methyl fumarate, reference compound]
IC50 (IL-1β): 6.2 µM
CIint (hepatocytes [1]; Table 5): >277 μL min^−1 10^−6 cells
CIint (hepatocytes [1]; Table 6): >277 μL min^−1 10^−6 cells
T½ (hepatocytes [1]; Table 6): <5 min
half-life at 10 μM [2]: < 5 min
CIint (hepatocytes [3]; Table 5): >277 μL min^−1 10^−6 cells
CIint (hepatocytes [3]; Table 6): >277 μL min^−1 10^−6 cells
half-life at 10 μM ([4]; Table 5, read-out: T½): < 5 min
half-life at 10 μM ([4]; Table 6, read-out: T½): < 5 min

O=C(/C=C/C(=O)OC1CCCCCCC1)OCCc1nnn[nH]1 [Example 5, 2-(1H-tetrazol-5-yl)ethyl cyclooctyl fumarate]
IC50 (IL-1β): 2.5 to 6.1 µM
EC50 (NRF2; +GSH): 20 to 100 µM
NRF2 activation Emax (NRF2; +GSH): + (+ means >17.1-99)
EC50 (NRF2; −GSH): 2.1 to 6 µM
NRF2 activation Emax (NRF2; −GSH): +++ (+++ means 150-199%)
CIint (hepatocytes [1]; Table 5): ++ (++ means 150-277)
half-life at 10 μM [2]: 5 to 29 min
CIint (hepatocytes [3]; Table 5): + (+ means >277)
half-life at 10 μM ([4]; Table 5, read-out: T½): < 5 min

C[C@H](OC(=O)/C=C/C(=O)OC1CCCCCCC1)C(=O)O [Example 6, (S,E)-2-((4-(cyclooctyloxy)-4-oxobut-2-enoyl)oxy)propanoic acid]
IC50 (IL-1β): < 2.5 µM
EC50 (NRF2; +GSH): 6 to 20 µM
NRF2 activation Emax (NRF2; +GSH): + (+ means >17.1-99)
EC50 (NRF2; −GSH): < 2 µM
NRF2 activation Emax (NRF2; −GSH): ++++ (++++ means 200-250%)
CIint (hepatocytes [1]; Table 5): ++++ (++++ means <50)
half-life at 10 μM [2]: 30 to 100 min
CIint (hepatocytes [3]; Table 5): ++ (++ means 200-277)
half-life at 10 μM ([4]; Table 5, read-out: T½): 5 to 10 min

CC(C)(COC(=O)/C=C/C(=O)OC1CCCCCCC1)C(=O)O [Example 7, (E)-3-((4-(cyclooctyloxy)-4-oxobut-2-enoyl)oxy)-2,2-dimethylpropanoic acid]
IC50 (IL-1β): < 2.5 µM
EC50 (NRF2; +GSH): 6 to 20 µM
NRF2 activation Emax (NRF2; +GSH): + (+ means >17.1-99)
EC50 (NRF2; −GSH): < 2 µM
NRF2 activation Emax (NRF2; −GSH): ++++ (++++ means 200-250%)
CIint (hepatocytes [1]; Table 5): +++ (+++ means 50-149)
half-life at 10 μM [2]: 5 to 29 min
CIint (hepatocytes [3]; Table 5): + (+ means >277)
half-life at 10 μM ([4]; Table 5, read-out: T½): < 5 min

O=C(/C=C/C(=O)OC1(C(=O)O)CC1)OC1CCCCCCC1 [Example 8, (E)-1-((4-(cyclooctyloxy)-4-oxobut-2-enoyl)oxy)cyclopropane-1-carboxylic acid]
IC50 (IL-1β): < 2.5 µM
EC50 (NRF2; +GSH): 20 to 100 µM
NRF2 activation Emax (NRF2; +GSH): ++ (++ means 100-149)
EC50 (NRF2; −GSH): < 2 µM
NRF2 activation Emax (NRF2; −GSH): ++++ (++++ means 200-250%)
CIint (hepatocytes [1]; Table 5): +++ (+++ means 50-149)
half-life at 10 μM [2]: 5 to 29 min
CIint (hepatocytes [3]; Table 5): + (+ means >277)
half-life at 10 μM ([4]; Table 5, read-out: T½): < 5 min
